This note sets out measurements from the SangsterLogP compilation.

The structures appear in SMILES notation.

Broadly, the logP is the decadic logarithm of the partition coefficient of the neutral form, usually between octanol and water. The low end stands for lower lipophilicity, the high end for higher lipophilicity. As to `CCc1cc2n(c1C(=O)c1ccc(F)cc1)CCC2C(=O)O` (stereo not given), the log partition coefficient (logP) was determined as 3.63.
`NCCCCCCCCOc1cccc2ccccc12` returned a logP of 3.14.
The same measure for `COC(=O)NC1=NCC(c2ccccc2F)N1C` (stereo not given): 1.53; for `CCc1cc2n(c1C(=O)c1ccccc1)CCC2C(=O)O` (stereo not given): 3.31; for `COc1ccc(C(=O)c2c(C)cc3n2CCC3C(=O)O)cc1` (stereo not given): 2.91.
The figure for `COC(=O)NC1=NCC(c2ccccc2SC)N1C` (stereo not given) is 2.08; for `Cc1cc2n(c1C(=O)c1ccccc1)CCC2C(=O)O` (stereo not given) it is 2.85.
The same measure for `COC(=O)NC1=NCC(c2cccc(OC)c2)N1C` (stereo not given): 1.39; for `NCCOc1cccc2ccccc12`: 1.15.
Take `COC(=O)NC1=NCC(c2ccc(Cl)cc2)N1C` (stereo not given): the lipophilicity (logP) came out at 2.17.
With `CN(C)CCCCOc1cccc2ccccc12`, the logP was found to be 2.05.
The same measure for `COC(=O)NC1=NCC(c2ccc(CO)cc2)N1C` (stereo not given): 0.28.
The figure for `COC(=O)NC1=NCC(c2cccc(Cl)c2)N1C` (stereo not given) is 2.1.
The same measure for `CCOC(=O)NC1=NCC(c2ccc(CO)cc2)N1C` (stereo not given): 0.84; for `NCCCCCCOc1cccc2ccccc12`: 2.06.
`CN(C)CCOc1cccc2ccccc12` displayed a logP of 2.12.
The figure for `COC(=O)NC1=NCC(c2cc(Br)ccc2Br)N1C` (stereo not given) is 2.77.
In turn, `COC(=O)NC1=NCC(c2cccc(C)c2)N1C` (stereo not given) showed a logP of 1.85.
The same measure for `COC(=O)NC1=NCC(c2ccc(C(=O)OC)cc2)N1C` (stereo not given): 1.38; for `CCOC(=O)NC1=NCC(c2cccc(F)c2)N1C` (stereo not given): 1.84.
The same measure for `COC(=O)NC1=NCC(c2ccc(C(F)(F)F)cc2)N1` (stereo not given): 2.25; for `CCOC(=O)NC1=NCC(c2cccc(Cl)c2)N1C` (stereo not given): 2.45; for `COC(=O)NC1=NCC(c2ccc(C=O)cc2)N1C` (stereo not given): 0.74.
Consider `COC(=O)NC1=NCC(c2ccccc2Cl)N1C` (stereo not given), for which the logP worked out at 2.08.
The figure for `COC(=O)NC1=NCC(c2ccc(F)cc2)N1` (stereo not given) is 1.49.
`CCOC(=O)NC1=NCC(c2ccccc2Cl)N1C` (stereo not given) displayed a logP of 2.4.
The figure for `NCCCCCOc1cccc2ccccc12` is 1.59; for `COC(=O)NC1=NCC(c2ccccc2Br)N1` (stereo not given) it is 1.85; for `COC(=O)NC1=NCC(c2ccc3ccccc3c2)N1` (stereo not given) it is 2.54.
The figure for `Cc1cc2n(c1C(=O)c1ccc(Cl)cc1)CCC2C(=O)O` (stereo not given) is 3.6.
The same measure for `COC(=O)NC1=NCC(c2cccc(F)c2)N1` (stereo not given): 1.41; for `COC(=O)NC1=NCC(c2cccc(Cl)c2)N1` (stereo not given): 1.9.
The compound `CCOC(=O)NC1=NCC(c2cccc(C)c2C)N1C` (stereo not given) returned a log partition coefficient (logP) of 2.57.
The figure for `COC(=O)NC1=NCC(c2ccc(C(C)C)cc2)N1` (stereo not given) is 2.6; for `O=c1c2ncn(COCCO)c2nc2[nH]c(-c3ccc4ccccc4c3)cn12` it is 2.09; for `NCCCCOc1cccc2ccccc12` it is 1.25.
The same measure for `NCCCOc1cccc2ccccc12`: 1.04.
In turn, `Cc1ccc(C(=O)c2c(C)cc3n2CCC3C(=O)O)cc1` (stereo not given) gave a logP of 3.33.
The figure for `COC(=O)NC1=NCC(c2ccccc2)N1` (stereo not given) is 1.55; for `COC(=O)NC1=NCC(c2ccc3c(c2)OCO3)N1` (stereo not given) it is 1.21.
The same measure for `CN(C)CCCOc1cccc2ccccc12`: 1.99; for `COC(=O)NC1=NCC(c2ccccc2C)N1C` (stereo not given): 1.85.
Take `CCOC(=O)NC1=NCC(c2ccc(F)cc2)N1C` (stereo not given): the logP was determined as 1.9.
Regarding `COC(=O)NC1=NCC(c2ccccc2)N1C` (stereo not given), the logP came out at 1.57.
Take `CCOC(=O)NC1=NCC(c2ccccc2)N1C` (stereo not given): the logP was 1.9.
